Reference: PubChem BioAssay AID2060484 (Molecular Pharmacology Branch, DTP, NCI, 2025)

System: SUM149PT spheroids with HUVEC/MSC, viability
Assay: Anticancer human tumor SUM149PT cell line growth inhibition [GQUAD];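 note: spheroids exposed to drugs for seven days before readout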;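 for viability, T/C: percent viability relative to DMSO vehicle control taken as 100%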
Settings: for IC50: curve of first compound; for viability, T/C: stronger effect = lower value
Procedure, shortened: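 Multi-cell-type spheroids of tumor cells with HUVEC and mesenchymal stem cells, treated with drug combinations. Concentrations descend in half-log steps from near clinical Cmax, or from 10 microM where Cmax is unknown; viability read-out.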

[1] = second compound 0.0316 µM, first compound 0.0316 µM
[2] = second compound 0.0316 µM, first compound 0.1 µM
[3] = second compound 0.0316 µM, first compound 0.316 µM
[4] = second compound 0.0316 µM, first compound 1 µM
[5] = second compound 0.0316 µM, first compound 3.16 µM
[6] = second compound 0.0316 µM, first compound 10 µM
[7] = second compound 0.1 µM, first compound 0.0316 µM
[8] = second compound 0.1 µM, first compound 0.1 µM
[9] = second compound 0.1 µM, first compound 0.316 µM
[10] = second compound 0.1 µM, first compound 1 µM
[11] = second compound 0.1 µM, first compound 3.16 µM
[12] = second compound 0.1 µM, first compound 10 µM
[13] = second compound 0.316 µM, first compound 0.0316 µM
[14] = second compound 0.316 µM, first compound 0.1 µM
[15] = second compound 0.316 µM, first compound 0.316 µM
[16] = second compound 0.316 µM, first compound 1 µM
[17] = second compound 0.316 µM, first compound 3.16 µM
[18] = second compound 0.316 µM, first compound 10 µM
[19] = second compound 1 µM, first compound 0.0316 µM
[20] = second compound 1 µM, first compound 0.1 µM
[21] = second compound 1 µM, first compound 0.316 µM
[22] = second compound 1 µM, first compound 1 µM
[23] = second compound 1 µM, first compound 3.16 µM
[24] = second compound 1 µM, first compound 10 µM
[25] = second compound 3.16 µM, first compound 0.0316 µM
[26] = second compound 3.16 µM, first compound 0.1 µM
[27] = second compound 3.16 µM, first compound 0.316 µM
[28] = second compound 3.16 µM, first compound 1 µM
[29] = second compound 3.16 µM, first compound 3.16 µM
[30] = second compound 3.16 µM, first compound 10 µM
[31] = second compound 10 µM, first compound 0.0316 µM
[32] = second compound 10 µM, first compound 0.1 µM
[33] = second compound 10 µM, first compound 0.316 µM
[34] = second compound 10 µM, first compound 1 µM
[35] = second compound 10 µM, first compound 3.16 µM
[36] = second compound 10 µM, first compound 10 µM

C#Cc1c(F)ccc2cc(O)cc(-c3ncc4c(N5CC6CCC(C5)N6)nc(OCC56CCCN5CC(F)C6)nc4c3F)c12 (stereo unspecified) + Cc1[nH]c2ccc(F)cc2c1-c1nc2c3cccnc3c3ncccc3c2[nH]1
IC50 (second compound 0.0316 µM): 4720 nM | IC50 (second compound 0.1 µM): 5520 nM | IC50 (second compound 0.316 µM): 3770 nM | IC50 (second compound 1 µM): 5380 nM | IC50 (second compound 3.16 µM): 5610 nM | IC50 (second compound 10 µM): 3430 nM | viability, T/C [1]: 103% | viability, T/C [2]: 96.5% | viability, T/C [3]: 93% | viability, T/C [4]: 72% | viability, T/C [5]: 57.6% | viability, T/C [6]: 38.4% | viability, T/C [7]: 106% | viability, T/C [8]: 98.9% | viability, T/C [9]: 94.7% | viability, T/C [10]: 87.2% | viability, T/C [11]: 54.8% | viability, T/C [12]: 44.2% | viability, T/C [13]: 110% | viability, T/C [14]: 96.5% | viability, T/C [15]: 83.8% | viability, T/C [16]: 74.6% | viability, T/C [17]: 48.5% | viability, T/C [18]: 37% | viability, T/C [19]: 95% | viability, T/C [20]: 90% | viability, T/C [21]: 87.3% | viability, T/C [22]: 76.5% | viability, T/C [23]: 55.9% | viability, T/C [24]: 42.6% | viability, T/C [25]: 96.9% | viability, T/C [26]: 85.2% | viability, T/C [27]: 83.7% | viability, T/C [28]: 76.2% | viability, T/C [29]: 52.9% | viability, T/C [30]: 45% | viability, T/C [31]: 102% | viability, T/C [32]: 82.3% | viability, T/C [33]: 88.2% | viability, T/C [34]: 60.2% | viability, T/C [35]: 52.2% | viability, T/C [36]: 35.6%

CC(=O)O[C@H]1C(=O)[C@@]2(C)[C@H]([C@H](OC(=O)c3ccccc3)[C@]3(O)C[C@H](OC(=O)[C@H](O)[C@@H](NC(=O)c4ccccc4)c4ccccc4)C(C)=C1C3(C)C)[C@]1(OC(C)=O)CO[C@@H]1C[C@@H]2O + Cc1[nH]c2ccc(F)cc2c1-c1nc2c3cccnc3c3ncccc3c2[nH]1
IC50 (second compound 0.0316 µM): < 31.6 nM | IC50 (second compound 0.1 µM): < 31.6 nM | IC50 (second compound 0.316 µM): < 31.6 nM | IC50 (second compound 1 µM): < 31.6 nM | IC50 (second compound 3.16 µM): < 31.6 nM | IC50 (second compound 10 µM): < 31.6 nM | viability, T/C [1]: 31.7% | viability, T/C [2]: 25.7% | viability, T/C [3]: 21.3% | viability, T/C [4]: 19.2% | viability, T/C [5]: 19% | viability, T/C [6]: 23.1% | viability, T/C [7]: 34.9% | viability, T/C [8]: 24.9% | viability, T/C [9]: 22.7% | viability, T/C [10]: 19.7% | viability, T/C [11]: 19.3% | viability, T/C [12]: 25.8% | viability, T/C [13]: 32.2% | viability, T/C [14]: 25.7% | viability, T/C [15]: 24.2% | viability, T/C [16]: 18.9% | viability, T/C [17]: 20.8% | viability, T/C [18]: 26.5% | viability, T/C [19]: 30.2% | viability, T/C [20]: 27.2% | viability, T/C [21]: 23.1% | viability, T/C [22]: 17.3% | viability, T/C [23]: 21.5% | viability, T/C [24]: 26.6% | viability, T/C [25]: 29.8% | viability, T/C [26]: 28.6% | viability, T/C [27]: 21.5% | viability, T/C [28]: 18% | viability, T/C [29]: 20.5% | viability, T/C [30]: 22.9% | viability, T/C [31]: 28.5% | viability, T/C [32]: 24.9% | viability, T/C [33]: 20.2% | viability, T/C [34]: 20.7% | viability, T/C [35]: 22.3% | viability, T/C [36]: 23.1%

CC[C@@]1(O)C(=O)OCc2c1cc1n(c2=O)Cc2cc3c(CN(C)C)c(O)ccc3nc2-1 + Cc1[nH]c2ccc(F)cc2c1-c1nc2c3cccnc3c3ncccc3c2[nH]1
IC50 (second compound 0.0316 µM): 85.2 nM | IC50 (second compound 0.1 µM): 84.8 nM | IC50 (second compound 0.316 µM): 80.2 nM | IC50 (second compound 1 µM): 78.3 nM | IC50 (second compound 3.16 µM): 85.7 nM | IC50 (second compound 10 µM): 77.2 nM | viability, T/C (second compound 0.0316 µM, first compound 0.000999 µM): 103% | viability, T/C (second compound 0.0316 µM, first compound 0.00316 µM): 89.6% | viability, T/C (second compound 0.0316 µM, first compound 0.00999 µM): 107% | viability, T/C [1]: 85.2% | viability, T/C (second compound 0.0316 µM, first compound 0.0999 µM): 43.1% | viability, T/C [3]: 45.6% | viability, T/C (second compound 0.1 µM, first compound 0.000999 µM): 110% | viability, T/C (second compound 0.1 µM, first compound 0.00316 µM): 105% | viability, T/C (second compound 0.1 µM, first compound 0.00999 µM): 104% | viability, T/C [7]: 87.3% | viability, T/C (second compound 0.1 µM, first compound 0.0999 µM): 42.5% | viability, T/C [9]: 45.1% | viability, T/C (second compound 0.316 µM, first compound 0.000999 µM): 97.1% | viability, T/C (second compound 0.316 µM, first compound 0.00316 µM): 99.7% | viability, T/C (second compound 0.316 µM, first compound 0.00999 µM): 106% | viability, T/C [13]: 89% | viability, T/C (second compound 0.316 µM, first compound 0.0999 µM): 40.2% | viability, T/C [15]: 41.5% | viability, T/C (second compound 1 µM, first compound 0.000999 µM): 114% | viability, T/C (second compound 1 µM, first compound 0.00316 µM): 99.8% | viability, T/C (second compound 1 µM, first compound 0.00999 µM): 105% | viability, T/C [19]: 80.2% | viability, T/C (second compound 1 µM, first compound 0.0999 µM): 41.5% | viability, T/C [21]: 40.2% | viability, T/C (second compound 3.16 µM, first compound 0.000999 µM): 82.7% | viability, T/C (second compound 3.16 µM, first compound 0.00316 µM): 97.8% | viability, T/C (second compound 3.16 µM, first compound 0.00999 µM): 99% | viability, T/C [25]: 91.7% | viability, T/C (second compound 3.16 µM, first compound 0.0999 µM): 43.1% | viability, T/C [27]: 44.1% | viability, T/C (second compound 10 µM, first compound 0.000999 µM): 96.1% | viability, T/C (second compound 10 µM, first compound 0.00316 µM): 86.8% | viability, T/C (second compound 10 µM, first compound 0.00999 µM): 108% | viability, T/C [31]: 85.1% | viability, T/C (second compound 10 µM, first compound 0.0999 µM): 40.5% | viability, T/C [33]: 38.7%
